The results in this text go back to US8546442B2, “Pyrazolopiperidine compounds as CCR1 receptor antagonists” (Boehringer Ingelheim International GmbH, priority 2010, dated 2013).

For experiment [1], the target named is T1, CCR1 (Homo sapiens, UniProt P32246).
T1 sequence (P32246 1-355): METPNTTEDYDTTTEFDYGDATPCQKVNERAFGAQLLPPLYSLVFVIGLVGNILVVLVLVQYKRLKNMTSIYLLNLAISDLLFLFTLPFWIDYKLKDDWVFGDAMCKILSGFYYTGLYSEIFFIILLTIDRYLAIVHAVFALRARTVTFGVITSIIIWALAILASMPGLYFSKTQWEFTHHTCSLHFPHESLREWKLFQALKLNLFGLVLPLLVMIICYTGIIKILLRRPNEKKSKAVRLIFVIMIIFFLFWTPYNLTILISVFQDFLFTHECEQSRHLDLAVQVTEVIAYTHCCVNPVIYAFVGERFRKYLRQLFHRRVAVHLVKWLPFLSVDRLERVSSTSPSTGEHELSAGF
As to the kind of experiment: calcium flux in CCR1 transfected cells, Method B (Calcium 4 dye, HAMAMATSU FDSS6000). The class given is cell-based. The conditions noted are these: cells stably expressing recombinant CCR1 and G-alpha-16, MIP-1alpha at EC80. As to the method:
(§1) Compounds are assessed for the ability to block the interaction of CCR1 and MIP-1α in a functional cellular assay measuring calcium flux in CCR1 transfected cells.
Method B: Non-adherent cells purchased from Chemicon Corporation (HTS005C), stably expressing recombinant CCR1 and G-alpha-16 are grown in RPMI 1640 medium (Mediatech 10-080-CM) supplemented with 10% FBS, 0.4 mg/mL Geneticin and penicillin/streptomycin. On the day of the assay, the cells are loaded with Calcium 4 dye (Molecular Devices R7448) with Probenecid (Invitrogen P346400) at 8E5 cells/mL for 1 hour at room temperature. After 1 hour, they are seeded in a 384-well tissue culture-treated plate at a density of 20,000 cells/well. Appropriately diluted test compound is added to the well to achieve a top concentration of 3,000 nM (diluted 4-fold with 10 doses total). The final concentration of DMSO is 1%. The buffer is HBSS (Invitrogen 14025) with 20 mM HEPES at pH 7.4. The cells incubate 30 minutes at 37 C and then 30 minutes at room temperature. The plates are transferred to the HAMAMATSU FDSS6000 where MIP-1alpha in 1% BSA is added at the EC80 final concentration. All plates must be read within 4 hours of the start of dye-loading. Wells+/−MIP-1alpha containing diluted DMSO instead of compound serve as the controls. Data are analyzed using Activity Base software.

Experiment [2] concerns the target T1, CCR1. As to the kind of experiment: calcium flux in CCR1 transfected cells, Method A (Fluo-4 NW, FLIPR TETRA). The class given is cell-based. The conditions noted are these: cells stably expressing recombinant CCR1 and G-alpha-16, MIP-1 alpha at EC80. As to the method:
as §1
Method A: Non-adherent cells purchased from Chemicon Corporation (HTS005C), stably expressing recombinant CCR1 and G-alpha-16 are grown in RPMI 1640 medium (Mediatech 10-080-CM) supplemented with 10% heat-inactivated FBS, 0.4 mg/mL Geneticin and penicillin/streptomycin. On the day of the assay, the cells are transferred to a beaker and dye-loaded in bulk using a Fluo-4 NW Calcium Assay Kit with probenecid (Invitrogen F36205) at 0.8E6 cells/mL for 1 hour at room temperature. After 1 hour, they are seeded in a 384-well tissue culture-treated plate at a density of 20,000 cells/well. Appropriately diluted test compound is added to the well to achieve a top concentration of 3,000 nM (diluted 4-fold with 10 doses total). The final concentration of DMSO is 1%. The buffer is HBSS (Invitrogen 14025) with 20 mM HEPES at pH 7.4. The cells are allowed to incubate 1 hour in the dark at room temperature. The plates are transferred to the FLIPR TETRA where MIP-1 alpha in 1% BSA is added at the EC80 final concentration. Wells+/−MIP-1 alpha containing diluted DMSO instead of compound serve as the controls. Intracellular calcium flux is recorded on the FLIPR TETRA, using excitation at 470/495 nm and emission at 515/575 nm. Data are analyzed using Activity Base software.

Consider `CC[C@H](NC(=O)N1CCCc2c1cnn2-c1ccc(F)cc1)c1ccc(Br)nc1` [Example 48, 1-(4-Fluorophenyl)-1,5,6,7-tetrahydro-pyrazolo[4,3-b]pyridine-4-carboxylic acid [(S)-1-(6-bromo-pyridin-3-yl)-propyl]-amide], for which the IC50 on CCR1 [1] was determined as 2 nM; at CCR1 [2] it was 19 nM.
On to `CCC[C@H](NC(=O)N1CCCc2c1cnn2-c1ccc(F)cc1)c1ccc(Br)nc1` [Example 49], for which the IC50 came out at 2 nM at CCR1 [1] and 12 nM on CCR1 [2].
For `CCC[C@H](NC(=O)N1CCCc2c1cnn2-c1ccc(F)cc1)c1ccc(S(C)(=O)=O)nc1` [Example 50], the IC50 turned out to be 0.9 nM at CCR1 [1] and 4 nM at CCR1 [2].
For `CC[C@H](NC(=O)N1CCCc2c1cnn2-c1ccc(F)cc1)c1ccc(S(C)(=O)=O)nc1` [Example 51], in that order: 3 nM and 14 nM.
For `CC[C@H](NC(=O)N1c2cnn(-c3ccc(F)cc3)c2CCC1C)c1ccnc(S(C)(=O)=O)c1` (some centres unmarked) [Example 55], in that order: 12 nM and 13 nM.
The matching figures for `CC[C@H](NC(=O)N1CCCc2c1cnn2-c1ccc(F)cc1)c1ccnc(S(C)(=O)=O)c1` [Example 59]: 0.6 nM and 0.4 nM.
For the compound `CCC[C@H](NC(=O)N1CCCc2c1cnn2-c1ccc(F)cc1)c1ccnc(S(C)(=O)=O)c1` [Example 60], the figures for the IC50 on CCR1 [1] and at CCR1 [2] were 0.3 nM and 0.5 nM, respectively.
Take `CCC[C@H](NC(=O)N1c2cnn(-c3ccc(F)cc3)c2CCC1C(F)(F)F)c1cncc(S(C)(=O)=O)c1` (some centres unmarked) [Example 61]: the IC50 at CCR1 [1] is 8 nM; on CCR1 [2], 12 nM.
For `CCC[C@H](NC(=O)N1CCCc2c1cnn2-c1ccc(F)cc1F)c1ccnc(S(C)(=O)=O)c1` [Example 62], in that order: 1 nM and 1 nM.
For `CCC[C@H](NC(=O)N1CCCc2c1cnn2-c1c(F)cc(F)cc1F)c1ccnc(S(C)(=O)=O)c1` [Example 63], the IC50 on CCR1 [1] and on CCR1 [2] was 14 nM each time.
